The values below come from patent publication US20250375453A1, “HIGH-EFFICIENCY ANTIMICROBIAL COMPOSITION” (CM4CURE S.A., priority 2023, published 2025).

For assay [1], the system named is Pseudomonas aeruginosa (PA). Nature of the assay: MIC in monotherapy and in combination therapy (ISO standard 20776-1). The assay is classed as cell-based. The text has this:
(§1) Summary of MIC Values for Fluometacyl (FLC)+Chlorhexidine (CHX) Tested Against MRSA, Enterococcus faecalis (VRE), Pseudomonas aeruginosa (PA) and Candida albicans (CA).
(§2) By Minimum Inhibitory Concentration (MIC) one means the lowest concentration of antimicrobial that prevents visible growth of a microorganism (determined according to ISO standard 20776-1).
(§3) This finds an implication in combining many known antimicrobials together rather than discovering new chemical entities.

Assay [2] deals with Candida albicans (CA). The assay is described as above. The assay is classed as cell-based.
From the text: as §1, §2, §3

For assay [3], the system named is Staphylococcus aureus (MRSA). The assay is described as above. The assay is classed as cell-based.
From the text: as §1, §2, §3

For assay [4], the system named is Vancomycin-resistant Enterococcus faecalis (VRE, ATCC BAA-2573). The assay can be described thus: Synergy checkerboard assay / broth micro-dilution MIC (ISO 20776-1 with modifications). The assay is classed as cell-based. Here is the method:
• 1. Preparation of the inoculum of Vancomycin-resistant Enterococcus faecalis (VRE, ATCC BAA-2573). Inoculum is prepared by suspension of 1 colony of bacteria (medium size colony from Tryptic Soy agar plate) in 3 ml of Tryptic Soy broth (TSB) using a 200 μL tip. The solution is mixed by vortexing and incubated at 37° C. overnight (19-24 hours) under shaking at 200 rpm. • 2. Preparation of the Antimicrobial dilution on the day of the experiment. Stock solutions are performed with distilled water for all antimicrobial compound except for Fluometacyl (ethanol). Dilution for each condition is made in Mueller-Hinton broth (NMB). 50p of APIs dilution is added to wells of a 96 wells microplate (each condition in duplicate-triplicate). • Antimicrobial compounds were prepared as follows: • Fluometacyl (F) (4 mg/mL in 100% EtOH) served as a master stock. To obtain the final concentration of 40 μg/ml in the bacterial suspension, initial stock of 160 μg/ml in Mueller-Hinton broth (MHB) was prepared and further 2-fold diluted using the following serial dilution scheme: • (1): 40 μg/ml (160 μg/ml, prepared in MHB) • (2): 20 μg/ml (80 μg/ml, dilution in MHB) • (3): 10 μg/ml (40 μg/ml, dilution in MHB) • (4): 5 μg/ml (20 μg/ml, dilution in MHB) • (5): 2.5 μg/ml (10 μg/ml, dilution in MHB) • (6): 1.25 μg/ml (5 μg/ml, dilution in MHB) • Chlorhexidine acetate (CHLX) (2 mg/mL in H2O) served as a master stock. To obtain the final concentration of 4 μg/ml in the bacterial suspension, initial stock of 16 μg/ml in MHB was prepared and further 2-fold diluted using the following serial dilution scheme: • (1): 8 μg/ml (32 μg/ml, prepared in MHB) • (2): 4 μg/ml (16 μg/ml, prepared in MHB) • (3): 2 μg/ml (8 μg/ml, dilution in MHB) • (4): 1 μg/ml (4 μg/ml, dilution in MHB) • (5): 0.5 μg/ml (2 μg/ml, dilution in MHB) • (6): 0.25 μg/ml (1 μg/ml, dilution in MHB) • 3. Preparation of VRE. Before the experiment, the VRE bacterial suspension (incubated overnight) is diluted 100× in TSB in 4 mL of TSB and grown at 37 C under agitation 200 rpm until OD600 reaches 0.08 to 0.16. This corresponds to the cell density […]. 100 μl of the bacterial solution (OD600 ranging from 0.08 to 0.16) is added to 9 900 μL of Mueller-Hinton Broth (MHB) (dilution 1:100). • 4. Preparation of a 96-well plate. 100 μL of bacteria (diluted 1:100 in MHB from the point 3) is added in each well of the plate containing 100 μL of the serially diluted APIs alone or in combinations as shown in the p. 2. Bacteria should be added into the 96-well plate within the 30 minutes following the preparation of the bacteria in order to maintain the same number of CFU/mL. Plates are incubated at 37° C. overnight. A condition with MHB medium alone or bacteria without APIs will also be added as the control conditions. Since fluometacyl is dissolved in ethanol, extra conditions are added: MHB with ethanol in order to assess the effect of ethanol on bacterial growth. • Following scheme is applied: • 2 antibacterial compounds: 50 μL of a antimicrobial 1+50 μL of a antimicrobial 2+100 μL of bacterial suspension in MHB • 1 antibacterial compound: 50 μL of a drug 1/2+50 μL of MHB+100 μL of bacterial suspension in MHB • Growth control: 100 μL MHB (+/−Ethanol)+100 μL of bacterial suspension • BLANK: MHB only • 5. CFU counting of the initial challenge inoculum. 10 μL of the solution of the bacteria used as the positive control is diluted in 10 mL of TSB. 100 μL is spread on Tryptic Soy agar (done in triplicate) and incubated at 37° C. overnight • 6. Results. The MIC is the lowest concentration that inhibits completely the visible growth of the bacteria (no turbidity in a well). The OD at 600 nm is also recorded for each well as back-up data.
Synergy evaluation resulting from the comparison between activity of the combination of the antimicrobial compounds and their individual activities was represented as the Fractional Inhibitory Concentration (FIC) index value. […]
A general note: Dilution methods test growth across graded concentrations, often in twofold steps.

Assay [5] has as its system Fusobacterium nucleatum. As to conditions: cited from earlier work.
[6] abbreviates: MIC combination / MIC monotherapy.

The structures appear in SMILES notation.

What is called MIC is the least concentration at which growth counts as inhibited. Regarding `[H]/N=C(\N/C(=N/[H])NCCCCCCNC(=N)NC(=N)Nc1ccc(Cl)cc1)Nc1ccc(Cl)cc1` [Chlorhexidine, chlorhexidine], the “Ratio Y/X” value was 0.25 in assay [1] (setting [6]), 0.5 in assay [2] (setting [6]), 0.25-0.5 in assay [3] (setting [6]) and 0.125-0.5 in assay [4] (setting [6]). The MIC is 16000 µg/mL in assay [1] (Pseudomonas aeruginosa, antimicrobial alone, read-out: MIC Monotherapy (X)); 4000 µg/mL in assay [2] (Candida albicans, antimicrobial alone, read-out: MIC Monotherapy (X)); 1000 µg/mL in assay [3] (Staphylococcus aureus, MRSA, antimicrobial alone, read-out: MIC Monotherapy (X)); 4000 µg/mL in assay [4] (Enterococcus faecalis, antimicrobial alone, read-out: MIC Monotherapy (X)). For the same molecule, the “MIC combination dual therapy (Y)” value in assay [1] (in FLC + CHX combination) was 4000 µg/mL; in assay [2] (in FLC + CHX combination), 2000 µg/mL; in assay [3] (in FLC + CHX combination), 250 to 500 µg/mL; in assay [4] (in FLC + CHX combination) it was 500 to 2000 µg/mL. In assay [5], the MIC of chlorhexdine is 1.8 µg/mL.
